Experimental data taken from US11766434B2, “Pyrimidinone derivatives as CDC7 inhibitors” (Cancer Research Technology Limited, priority 2016, dated 2023).

Assays:
Cdc7 = Cdc7 (Homo sapiens, UniProt O00311); assay: Cdc7 cell pharmacodynamics assay Method 3: pS53MCM2 levels in SW48 cells; assay type: cell-based; parameters: endogenous in cells; host or cells: SW48; settings: 6 hours treatment, read-out: Biomarker Method 3 (pEC50) (converted)
Text: This protocol describes a method to investigate the inhibition of Cdc7 activity by measuring pS53MCM2 levels in cells, after treatment with compounds.
• SW48 cells • RPMI 1640 (Sigma, R5886) • 10% FCS (Sera Laboratories International Ltd, EU000F Batch: 108005) • 100× L-Glutamine (Invitrogen, 25030-024) • D-Glucose Solution (10%) (Sigma, G8644) • HEPES Buffer Solution (Sigma, 83264) • Sodium Pyruvate (Sigma, S8636) • PBS (Fisger, BP399-4) • Trypsin/EDTA (Invitrogen 25300-054) • 2% BSA in PBS • Cell Extraction Buffer (Invitrogen FNN0011) • Protease inhibitor cocktail (Sigma P-2714) • PMSF 0.3M stock in DMSO (Sigma P7626) • Antibody—rabbit pMCM2 Ser53 (Bethyl #A300-756A) • Antibody—goat MCM2 (Bethyl #A300-122A) • Antibody—goat Anti Rabbit IgG HRP (Perbio Science UK Ltd 31462) • SuperSignal ELISA Pico Chemiluminescent Substrate (Perbio Science UK Ltd 37070) Method • Plate 30,000 SW48 cells per well in standard TC treated 96 well plate in 100 μL complete RPMI 1640 medium. • Allow cells to settle overnight in incubator set at 37° C. and 5% CO2. • Cell treatment: prepare a 384 well plate containing 80 μl PBS/well. The PBS should be at room temperature—to be referred to as intermediate plate. Transfer 2 μL of compound from mother plate to intermediate (daughter plate) 1:40 dilution, then 5 μL intermediate to cell (daughter) plate. • Once all cells are treated place the cells back to the incubator and incubate for 6 hours. • Dilute the capture antibody (total MCM2 #A300-122A) 1 in 250 in the required volume of PBS (5 mL per assay plate, plus 5 mL for dead volume) and add 50 μL to each well of a Hybond plate. Seal the plate and incubate at room temperature for a minimum of 2 hours. • Defrost aliquot of Invitrogen Cell Extraction Buffer (FNN0011) on ice and supplement with appropriate volume of both Sigma protease inhibitor cocktail (P-2714) and PMSF (final cone 1 mM from a 1 M stock in DMSO). • After the 6 hour cell treatment time, tap out the media from the assay plates and place them in the −80° C. freezer for at least 5 minutes. • Remove plates from freezer and add 20 μL of ice cold complete lysis buffer, with the multidrop. Incubate cells for 30 minutes at 4° C. • Add 80 μL per well 2% BSA. • Flick out the remaining liquid from the capture plate and transfer 80 μL from the lysis plate to the same wells in the capture/ELISA plate, using the Biomek. Cover with plate seal and incubate plates overnight at 4° C. • Wash plates with PBS, remove any residual remaining liquid and add 50 μL per well of pMCM2 Ser53 antibody (#A300-756A) diluted 1 in 100 in 2% BSA. Cover plate and incubate at room temperature for 2 hours with gentle shaking. • Wash plates with PBS, remove any residual remaining liquid and Incubate with 50 μL goat anti rabbit antibody (1 in 800 dilution in 2% BSA), for 1 hour at room temperature. • Wash plates with PBS, remove any residual remaining liquid and add 50 μL mixed SuperSignal Pico substrate. • Incubate each plate for 5 minutes at room temperature shielding the plates from direct light (with a cover plate). Read plates with the luminescent detection. Results

Cdc7/ASK = Cdc7/ASK (Homo sapiens, UniProt O00311); assay: Cdc7 biochemical assay Method 3: off-chip mobility shift assay (MSA) run at Carna Biosciences; parameters: purchased Carna Biosciences; host or cells: baculovirus expression system; settings: MCM2 peptide 1000 nM, ATP 5 μM, 5 hours, read-out: Biochemical method 3 (pIC50) (converted)
Method: This protocol describes a method for assaying Cdc7/ASK for activity. The assay is an off-chip mobility shift assay (MSA) run at Carna Biosciences.
The test compound was dissolved in and diluted with dimethylsulfoxide (DMSO) to achieve 100-fold higher concentration which was specified by the sponsor. Then the solution was further 25-fold diluted with assay buffer to make the final test compound solution. Reference compounds for assay control were prepared similarly. 2. Kinase Cdc7/ASK: Full-length human Cdc7 [1-574(end) amino acids of accession number NP_003494.1] was co-expressed as N-terminal GST-fusion protein (92 kDa) with Dbf4(ASK) [1-674(end) amino acids of accession number NP_006707.1] using baculovirus expression system. GST-Cdc7 was purified by using glutathione sepharose chromatography. 3. Assay Reagents and Procedures Off-Chip Mobility Shift Assay (MSA) • 1) The […] were prepared with assay buffer (20 mM HEPES, 0.01% Triton X-100, 1 mM DTT, pH 7.5) and mixed and incubated in a well of polypropylene 384 well microplate for 5 hours at room temperature. • 2) […] of Termination Buffer (QuickScout Screening Assist MSA; Carna Biosciences) was added to the well. • 3) The reaction mixture was applied to LabChip system (Perkin Elmer), and the product and substrate peptide peaks were separated and quantitated. • 4) The kinase reaction was evaluated by the product ratio calculated from peak heights of product (P) and substrate (S) peptides (P/(P+S)). 4. Reaction Conditions
5. Data Analysis The readout value of reaction control (complete reaction mixture) was set as a 0% inhibition, and the readout value of background (Enzyme(−)) was set as a 100% inhibition, then the percent inhibition of each test solution was calculated. IC50 value was calculated from concentration vs. % Inhibition curves by fitting to a four parameter logistic curve. Results

Cdc7/Dbf4 = Cdc7/Dbf4 (Homo sapiens, UniProt O00311); assay: Cdc7 biochemical assay Method 2: Cdc7/Dbf4 Enzyme TR-FRET Assay measuring pS40MCM2; settings: pS40 MCM2 peptide, 1 μM ATP, 25° C., 120 minutes, read-out: Biochemical Method 2 (pIC50) (converted)
Method: This protocol describes a method for assaying a compounds' ability to inhibit Cdc7 activity by measuring pS40MCM2 levels in a Cdc7/Dbf4 Enzyme TR-FRET Assay.
2.5 nM Cdc7/Dbf4 was incubated with 100 nM of biotin-labelled peptide 35-TDALTS(pS)PGRDLP in the presence of 1 μM ATP at 25° C. for 120 minutes. The phosphorylation of the peptide was detected using TR-FRET. Anti-Mcm2 (pS40) antibody, Terbium anti-rabbit secondary antibody and Streptavidin-Alexa Fluor488 form the detection system.

Cdc7, sequence (O00311 whole entry): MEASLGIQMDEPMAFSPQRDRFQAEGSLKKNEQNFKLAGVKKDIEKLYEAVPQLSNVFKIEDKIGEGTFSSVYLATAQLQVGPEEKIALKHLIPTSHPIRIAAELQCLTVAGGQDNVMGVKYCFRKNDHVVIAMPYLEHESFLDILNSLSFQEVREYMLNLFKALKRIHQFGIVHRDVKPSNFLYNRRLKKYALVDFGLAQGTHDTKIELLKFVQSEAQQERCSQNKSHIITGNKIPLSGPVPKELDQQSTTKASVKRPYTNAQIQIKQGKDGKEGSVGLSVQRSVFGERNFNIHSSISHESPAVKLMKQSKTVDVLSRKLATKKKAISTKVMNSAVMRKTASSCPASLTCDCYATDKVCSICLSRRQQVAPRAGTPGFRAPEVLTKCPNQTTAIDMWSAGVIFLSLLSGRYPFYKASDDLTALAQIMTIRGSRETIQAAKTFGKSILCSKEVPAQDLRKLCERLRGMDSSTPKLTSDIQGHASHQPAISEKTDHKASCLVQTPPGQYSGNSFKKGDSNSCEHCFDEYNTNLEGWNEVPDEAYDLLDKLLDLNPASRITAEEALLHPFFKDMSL
Cdc7, sequence (Q9UBU7 whole entry partner): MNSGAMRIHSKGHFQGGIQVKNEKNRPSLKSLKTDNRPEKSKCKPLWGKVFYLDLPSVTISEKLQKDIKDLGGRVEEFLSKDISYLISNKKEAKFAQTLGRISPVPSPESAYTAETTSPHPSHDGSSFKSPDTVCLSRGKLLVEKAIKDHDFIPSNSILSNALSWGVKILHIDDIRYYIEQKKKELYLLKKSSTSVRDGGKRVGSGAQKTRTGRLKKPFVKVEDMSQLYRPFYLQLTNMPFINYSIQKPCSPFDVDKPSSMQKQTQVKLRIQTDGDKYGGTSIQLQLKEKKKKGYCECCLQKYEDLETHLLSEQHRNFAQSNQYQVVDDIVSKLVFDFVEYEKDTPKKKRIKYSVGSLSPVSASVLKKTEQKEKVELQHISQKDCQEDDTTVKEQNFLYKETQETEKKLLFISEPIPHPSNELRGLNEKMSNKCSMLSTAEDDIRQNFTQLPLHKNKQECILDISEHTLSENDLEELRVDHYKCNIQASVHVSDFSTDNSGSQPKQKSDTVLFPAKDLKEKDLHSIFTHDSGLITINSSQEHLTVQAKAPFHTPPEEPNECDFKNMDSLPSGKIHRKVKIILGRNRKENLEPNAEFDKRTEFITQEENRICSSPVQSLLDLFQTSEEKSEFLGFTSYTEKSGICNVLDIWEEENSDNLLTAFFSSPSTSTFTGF
Cdc7/Dbf4, sequence (O00311 whole entry): as the sequence (O00311 whole entry) above
Cdc7/Dbf4, sequence (Q9UBU7 whole entry partner): as the sequence (Q9UBU7 whole entry partner) above
Cdc7/ASK, sequence (O00311 whole entry): as the sequence (O00311 whole entry) above
Cdc7/ASK, sequence (Q9UBU7 whole entry partner): as the sequence (Q9UBU7 whole entry partner) above

Compound	EC50 (Cdc7)	IC50 (Cdc7/ASK)	IC50 (Cdc7/Dbf4)
O=c1[nH]c(-c2scnc2C(F)(F)F)nc(C2CCOCC2)c1Cl [Compound 14, 5-chloro-4-tetrahydropyran-4-yl-2-[4-(trifluoromethyl)thiazol-5-yl]-1H-pyrimidin-6-one]	2450 nM	–	–
O=c1[nH]c(-c2scnc2Cl)nc(C2CCOCC2)c1Cl [Compound 4, 5-chloro-2-(4-chlorothiazol-5-yl)-4-tetrahydropyran-4-yl-1H-pyrimidin-6-one]	1480 nM	–	–
Cc1ncsc1-c1nc(C2CCOCC2)c(Cl)c(=O)[nH]1 [Compound 6, 5-chloro-2-(4-methylthiazol-5-yl)-4-tetrahydropyran-4-yl-1H-pyrimidin-6-one]	2090 nM	–	1.95 nM

More lines, now with the values ahead:

EC50 (Cdc7)	IC50 (Cdc7/ASK)	IC50 (Cdc7/Dbf4)	Compound
316 nM	3.98 nM	0.832 nM	C[C@@H]1COCCN1c1nc(-c2cn[nH]c2C(F)(F)F)[nH]c(=O)c1Cl [Compound 41, 5-chloro-4-[(3R)-3-methylmorpholin-4-yl]-2-[5-(trifluoromethyl)-1H-pyrazol-4-yl]-1H-pyrimidin-6-one]
–	–	1.45 nM	O=c1[nH]c(-c2cn[nH]c2C(F)(F)F)nc(C2CCOCC2)c1Cl [Compound 17, 5-chloro-4-tetrahydropyran-4-yl-2-[5-(trifluoromethyl)-1H-pyrazol-4-yl]-1H-pyrimidin-6-one]
347 nM	3.89 nM	1.82 nM	C[C@@H]1CNCCN1c1nc(-c2cn[nH]c2Cl)[nH]c(=O)c1Cl [Compound 43, 5-chloro-2-(5-chloro-1H-pyrazol-4-yl)-4-[(2R)-2-methylpiperazin-1-yl]-1H-pyrimidin-6-one]
1100 nM	–	–	Cc1ncsc1-c1nc(N2CCN[C@@H](C(F)(F)F)C2)c(Cl)c(=O)[nH]1 [Compound 28, 5-chloro-2-(4-methylthiazol-5-yl)-4-[(3R)-3-(trifluoromethyl)piperazin-1-yl]-1H-pyrimidin-6-one]
724 nM	6.17 nM	2.69 nM	C[C@@H]1CNCCN1c1nc(-c2cn[nH]c2C(F)(F)F)[nH]c(=O)c1Cl [Compound 44, 5-chloro-4-[(2R)-2-methylpiperazin-1-yl]-2-[5-(trifluoromethyl)-1H-pyrazol-4-yl]-1H-pyrimidin-6-one]
